Source: ChEMBL document CHEMBL1201862, “PubChem BioAssay data set” (2004)
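Results reflect a 48-hour exposure of cells in 96-well plates to compound at five concentrations. Here, GI50 denotes the concentration required for 50% inhibition of growth.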 The source made the active and inactive calls. No stated cut-off is given here; in the data, active = GI50 up to about 1.1 µM and inactive = higher.

How the values were obtained:
Experiment in all cases: NCI anticancer screen, dose series, 48 h
[1] = test system: 786-0
[2] = test system: A498
[3] = test system: CCRF-CEM
[4] = test system: EKVX
[5] = test system: HCT-116
[6] = test system: HL-60
[7] = test system: LOX IMVI
[8] = test system: LXFL 529
[9] = test system: M14
[10] = test system: MOLT-4
[11] = test system: NCI-H460
[12] = test system: RXF 393
[13] = test system: SR
[14] = test system: U-251
[15] = test system: UO-31
[16] = test system: HOP-92
[17] = test system: DU-145
[18] = test system: MCF7
[19] = test system: MDA-MB-231
[20] = test system: NCI/ADR-RES

Compound	GI50 [1]	GI50 [2]	GI50 [3]	GI50 [4]	GI50 [5]	GI50 [6]	GI50 [7]	GI50 [8]	GI50 [9]	GI50 [10]	GI50 [11]	GI50 [12]	GI50 [13]	GI50 [14]	GI50 [15]	GI50 [16]	GI50 [17]	GI50 [18]	GI50 [19]	GI50 [20]
O=C(O)CCC(=O)Oc1ccc(O)c2c1CCCC2=O	> 100 µM (inactive)	> 100 µM (inactive)	> 100 µM (inactive)	58.5 µM (inactive)	> 100 µM (inactive)	> 100 µM (inactive)	> 100 µM (inactive)	> 100 µM (inactive)	> 100 µM (inactive)	> 100 µM (inactive)	> 100 µM (inactive)	> 100 µM (inactive)	64 µM (inactive)	> 100 µM (inactive)	> 100 µM (inactive)					
CC1(C)OCC([C@H]2CC23SCCCS3)O1 (stereo partly drawn)	> 100 µM (inactive)	> 100 µM (inactive)		> 100 µM (inactive)	> 100 µM (inactive)	> 100 µM (inactive)		> 100 µM (inactive)	> 100 µM (inactive)	> 100 µM (inactive)	> 100 µM (inactive)	> 100 µM (inactive)	> 100 µM (inactive)	> 100 µM (inactive)	> 100 µM (inactive)	51.8 µM (inactive)				
CCOc1ccc(/C(C=O)=C(\Cl)c2ccc(OC)cc2)cc1	> 100 µM (inactive)	> 100 µM (inactive)	5.24 µM (inactive)	> 52 µM (inactive)	> 83.8 µM (inactive)	14.6 µM (inactive)	14.2 µM (inactive)	> 100 µM (inactive)	> 73.1 µM (inactive)	5.48 µM (inactive)	> 100 µM (inactive)	> 100 µM (inactive)	5.16 µM (inactive)	> 57.7 µM (inactive)	> 57.1 µM (inactive)	69.3 µM (inactive)	> 100 µM (inactive)	> 100 µM (inactive)	> 100 µM (inactive)	77.4 µM (inactive)
CC[C@@H]1OC2(C)CC(S(=O)(=O)c3ccccc3O)CC1O2 (stereo partly drawn)	> 100 µM (inactive)		> 100 µM (inactive)	> 100 µM (inactive)	> 100 µM (inactive)	> 100 µM (inactive)		> 100 µM (inactive)	> 100 µM (inactive)	> 100 µM (inactive)	> 100 µM (inactive)	> 100 µM (inactive)	> 100 µM (inactive)	> 100 µM (inactive)	> 100 µM (inactive)	> 100 µM (inactive)				
CCCCNCC(=O)O[C@]1(CC)C(=O)OCc2c1cc1n(c2=O)Cc2cc3ccccc3nc2-1	0.0482 µM (active)	0.741 µM (active)	0.0127 µM (active)	2.98 µM (inactive)	0.407 µM (active)	0.084 µM (active)	0.0721 µM (active)	3.21 µM (inactive)	0.231 µM (active)	0.017 µM (active)	0.0261 µM (active)	0.385 µM (active)	0.0101 µM (active)	0.0508 µM (active)	0.207 µM (active)	1.52 µM (inactive)	0.0482 µM (active)	0.0998 µM (active)	29.9 µM (inactive)	0.0789 µM (active)
CC1(C)CC(=O)C(C(=O)Nc2cccs2)=C(O)C1	49.9 µM (inactive)	28.8 µM (inactive)	23 µM (inactive)	42 µM (inactive)	29.7 µM (inactive)	24.1 µM (inactive)	32.3 µM (inactive)	31.8 µM (inactive)	36.7 µM (inactive)	28 µM (inactive)	35.9 µM (inactive)	29.9 µM (inactive)	29.9 µM (inactive)	31.8 µM (inactive)	28.8 µM (inactive)	27.6 µM (inactive)				
O=C1NC(Cc2ccc(O)cc2)C(=O)N2CCCC12 (stereo not drawn)	> 100 µM (inactive)	> 100 µM (inactive)	> 100 µM (inactive)	> 100 µM (inactive)	> 100 µM (inactive)	> 100 µM (inactive)	> 100 µM (inactive)	> 100 µM (inactive)	> 100 µM (inactive)	> 100 µM (inactive)	> 100 µM (inactive)	> 100 µM (inactive)	> 100 µM (inactive)	> 100 µM (inactive)	> 100 µM (inactive)	> 100 µM (inactive)				
CCN(CC)CC[n+]1ccc2c(C)c3[nH]c4ccc(O)cc4c3c(C)c2c1	3.05 µM (inactive)	16.2 µM (inactive)	1.43 µM (inactive)	10.8 µM (inactive)	6.47 µM (inactive)	2.88 µM (inactive)	10.8 µM (inactive)	2.5 µM (inactive)	10.7 µM (inactive)	0.0473 µM (active)	0.434 µM (active)	11.1 µM (inactive)	0.0278 µM (active)	1.33 µM (inactive)	28 µM (inactive)	3.85 µM (inactive)	2.4 µM (inactive)	2 µM (inactive)	10.6 µM (inactive)	14.6 µM (inactive)
COC(=O)C1=NC(=S)NC(c2ccccc2)C1c1nc2ccccc2s1 (stereo not drawn)	> 100 µM (inactive)	> 100 µM (inactive)	> 100 µM (inactive)	> 100 µM (inactive)	> 100 µM (inactive)	98.2 µM (inactive)		> 100 µM (inactive)	> 100 µM (inactive)	> 100 µM (inactive)	> 100 µM (inactive)	> 100 µM (inactive)	> 100 µM (inactive)	> 100 µM (inactive)	> 100 µM (inactive)	> 100 µM (inactive)				
COc1ccc(/C=C2\CCC(Cc3ccccc3)(CN(C)C)C2=O)cc1 (stereo not drawn)	41.7 µM (inactive)	58.6 µM (inactive)	27.9 µM (inactive)	42.5 µM (inactive)	28.8 µM (inactive)	19.7 µM (inactive)	24.5 µM (inactive)	36.1 µM (inactive)	26.7 µM (inactive)	25 µM (inactive)	67.3 µM (inactive)	35.1 µM (inactive)	20.6 µM (inactive)	61.7 µM (inactive)	54.3 µM (inactive)	53.3 µM (inactive)	> 70.8 µM (inactive)	41.8 µM (inactive)	98.9 µM (inactive)	42.2 µM (inactive)
N#CC(C#N)=C1NC(=O)C(c2ccccc2)C(=O)N1 (stereo not drawn)	> 100 µM (inactive)	> 100 µM (inactive)	> 100 µM (inactive)	> 100 µM (inactive)	> 100 µM (inactive)	> 100 µM (inactive)	> 100 µM (inactive)	> 100 µM (inactive)	> 100 µM (inactive)	> 100 µM (inactive)	> 100 µM (inactive)	> 100 µM (inactive)	> 100 µM (inactive)	> 100 µM (inactive)	> 100 µM (inactive)	> 100 µM (inactive)				
C[C@]12CCC(=O)C=C1CC[C@@H]1[C@@H]2C(=O)C[C@@]2(C)[C@H]1CC[C@]2(O)C(=O)CO [CORTISONE]	> 100 µM (inactive)	> 100 µM (inactive)	> 100 µM (inactive)	> 100 µM (inactive)	> 100 µM (inactive)	> 100 µM (inactive)		> 100 µM (inactive)	> 100 µM (inactive)	> 100 µM (inactive)	> 100 µM (inactive)	> 100 µM (inactive)	> 100 µM (inactive)	> 100 µM (inactive)	> 100 µM (inactive)	> 100 µM (inactive)				
COCCOCOC(C)(C)[C@H](CCOC(C)=O)O[Si](c1ccccc1)(c1ccccc1)C(C)(C)C	18 µM (inactive)	20.4 µM (inactive)	4.97 µM (inactive)	27.2 µM (inactive)	5.93 µM (inactive)	3.98 µM (inactive)	14.1 µM (inactive)	7.33 µM (inactive)	14.1 µM (inactive)	3.75 µM (inactive)	5.74 µM (inactive)	16 µM (inactive)	4.42 µM (inactive)	12.3 µM (inactive)	13.5 µM (inactive)	5.61 µM (inactive)				
CC(=O)O[C@H]1[C@@H]2[C@@H]3[C@@H](C[C@H]1C)[C@@H](C)CO[C@@]1(C)CC/C=C(/C)C[C@@H]2O[C@@H]31	> 100 µM (inactive)	> 100 µM (inactive)	> 100 µM (inactive)	> 100 µM (inactive)	> 100 µM (inactive)	> 100 µM (inactive)	> 100 µM (inactive)	> 100 µM (inactive)	> 100 µM (inactive)	> 100 µM (inactive)	> 100 µM (inactive)	> 100 µM (inactive)	> 100 µM (inactive)	> 100 µM (inactive)	> 100 µM (inactive)	> 100 µM (inactive)				
CCOC(=O)Nc1ccc2c(c1)N(C(=O)CCN(CC)CC)c1ccccc1S2 [ETHACIZINE]	24.4 µM (inactive)	23.4 µM (inactive)	34.3 µM (inactive)	> 35.9 µM (inactive)	17.6 µM (inactive)	18.9 µM (inactive)	17.6 µM (inactive)	19 µM (inactive)	22.9 µM (inactive)	22.9 µM (inactive)	20.1 µM (inactive)	21.6 µM (inactive)	17.5 µM (inactive)	26.6 µM (inactive)	27.5 µM (inactive)	18.9 µM (inactive)	50.1 µM (inactive)	25.3 µM (inactive)	26.1 µM (inactive)	45.2 µM (inactive)
O=C1NCC2=C1CCC1c3ccccc3CCN21 (stereo not drawn)	> 100 µM (inactive)	> 100 µM (inactive)	> 100 µM (inactive)	> 100 µM (inactive)	> 100 µM (inactive)	> 100 µM (inactive)	> 100 µM (inactive)	> 100 µM (inactive)		> 100 µM (inactive)	> 100 µM (inactive)	> 100 µM (inactive)	> 100 µM (inactive)	> 100 µM (inactive)	> 100 µM (inactive)	> 100 µM (inactive)				
